The subject of series [1] is mice. Briefly: CNS-activity and acute toxicity test. The settings on record: mice, intraperitoneal. The procedure: (§1) Adult male NMRI mice (3 months old, weighing 35–40 g) from Janvier labs (Le Genest-Saint-Isle, France) were used to perform experiments. Mice were housed by ten in standard polycarbonate cages in standard controlled conditions (22 ± 2°C, 55 ± 10% humidity) with a reversed 12 h light/dark cycle (light on at 7 pm). Food and water were available ad libitum in the home cage.
(§2) The approximate DL50 of the compounds were also calculated through the quantification of mortality after 24 h. Amphetamine (2 mg/kg), chlorpromazine (10 mg/kg) were used as a stimulant and depressive references, respectively.
(§3) Amphetamine, (+)-α-Methylphenethylamine hemisulfate, chlorpromazine hydrochloride, imipramine hydrochloride and scopolamine hydrobromide were purchased from Sigma (France). All those pharmacological compounds were dissolved in NaCl 0.9% as the vehicle were administered IP 30 min before tests, except scopolamine which was subcutaneously administered 20 min before spontaneous alternation test.

Series [2] relates to mice. The series can be described thus: Spatial working memory: scopolamine-induced deficit of spontaneous alternation in the Y maze. In kind it is in vivo, NMRI mice. The settings on record: IP 30 min before test, 0.3, 1, 3 mg/kg, scopolamine 0.5 mg/kg SC, effect at doses starting from 0.3 mg/kg. The procedure:
as §1
An arm entry was scored when all four feet crossed into the arm. An alternation was defined as entries into all three arms on a consecutive occasion.
as §3

The nature of series [3]: CNS-activity and acute toxicity test. The settings on record: male, NMRI, mouse, in vivo, ip. The procedure: as §1, §2, §3
Series [4] addresses T1, (h)5-HT6R (Homo sapiens, UniProt P50406).
T1 construct: HA; expressed in transfected cells; host or cells: COS-7 cells, transient electroporation
The series can be described thus: Reversion of the basal 5-HT6R-induced cAMP production (constitutive activity) in COS-7 cells. Format: cell-based. The settings on record: for cAMP production in the absence of agonist (inverse agonist activity): 10^−4M, absence of 5-HT; for (h)5-HT6R Profile: cAMP. The procedure: (§4) COS-7 cells were grown in Dulbecco’s modified Eagle medium (DMEM) supplemented with 10% dialyzed fetal calf serum (dFCS) and antibiotics. Cells were transiently transfected by electroporation with plasmids encoding HA-tagged 5-HT4R (100 ng/10^6 cells) or HA-tagged 5-HT6R (70 ng/10^6 cells or 300 ng/10^6 cells), then seeded in 96-well plates (16,000 cells/well).
Reversion of the basal 5-HT6R-induced cAMP production: the 5-HT6R expression was augmented by transfection of higher quantities of cDNA (300 ng/10^6 cells) to increase the basal cAMP production linked to the constitutive activity of the receptor. […] This experiment is performed in the absence of 5-HT. After 10 min at 37°C, cells were then lysed by addition of 100 μL of Triton-X100 (0.1%).
(§5) Quantification of cAMP production was performed by HTRF® by using the cAMP Dynamic kit (Cisbio Bioassays) according to the manufacturer’s instructions.
A general note: Cyclic AMP is a second messenger, typically raised through Gs and lowered through Gi signalling.

A further series deals with T2, human 5-HT6 receptors (Homo sapiens, UniProt P50406).
T2 construct: purchased Perkin Elmer RBHS6M; host or cells: HEK-293 cells, transient expression (membranes)
Briefly: [3H]-LSD competition binding on membranes of HEK-293 cells expressing human 5-HT6 receptors. The note with it: for Ki: (h)5-HT6R Ki, n = 3, Ki ± SD; for inhibition: 2.5 nM [3H]-LSD. The procedure: Drugs were evaluated through their possibility to compete for the binding of [^3H]-LSD on membranes of HEK-293 cells transiently expressing the human 5-HT6 receptors (ref. RBHS6M, Perkin Elmer). […] At the end of the incubation, the homogenates were then filtered through Whatman GF/C filters and washed five times with ice-cold 25 mM Tris-HCl buffer. Non-specific binding was evaluated in the presence of 100 μM serotonin. Radioactivity associated to proteins was then quantified and expressed as the percentage of inhibition of the drugs under study.
(§6) For some of these compounds, affinity constants were calculated from five-point inhibition curves using the GraphPad Prism 6 software and expressed as Ki ± SD.

In series [5] the target is T3, AChE from human erythrocytes (Homo sapiens, UniProt P22303).
T3 construct: AChE from human erythrocytes; purchased Sigma Aldrich; host or cells: human erythrocytes (natural source)
The series can be described thus: biochemical. The note with it: for IC50: n = 2, read-out: (h)AChE IC50; for inhibition at 1 µM: read-out: (h)AChE % inhibition at 10^−6M. The procedure:
Acetylthiocholine iodide and 5,5-dithiobis-(2-nitrobenzoic) acid (DTNB) were purchased from Sigma Aldrich. AChE from human erythrocytes (buffered aqueous solution, ≥500 units/mg protein (BCA), Sigma Aldrich) was diluted in 20 mM HEPES buffer pH 8, 0.1% Triton X-100 such as to have enzyme solution with 0.25 unit/mL enzyme activity. In the procedure, 100 μL of 0.3 mM DTNB dissolved in phosphate buffer pH 7.4 was added into the 96-well plate followed by 50 μL of test compound solution and 50 μL of enzyme (0.05 U final). After 5 min of preincubation at 25°C, the reaction was then initiated by the injection of 50 μL of 10 mM acetylthiocholine iodide solution. […] Assays were performed with a blank containing all components except acetylthiocholine, in order to account for non-enzymatic reaction. The reaction slopes were compared and the percent inhibition due to the presence of test compounds was calculated by the following expression: 100 − (vi/v0 × 100) where vi is the rate calculated in the presence of inhibitor and v0 is the enzyme activity.

The subject of series [6] is mice. The series can be described thus: Locomotor activity (actimeter). The settings on record: IP 30 min before test, 1, 3 and 10 mg/kg, 30 min recording. Format: in vivo. The procedure: as §1, §3
The next series addresses T4, (h)5-HT4(a)R (Homo sapiens, UniProt Q13639).
T4 construct: HA; expressed in transfected cells; host or cells: COS-7 cells, transient electroporation
Briefly: 5-HT4R-induced cAMP production in transfected COS-7 cells. In kind it is cell-based. The procedure:
as §4
After 10 min, cells were then lysed by addition of the same volume of Triton-X100 (0.1%).
as §5

In series [7] the target is T1, (h)5-HT6R. Briefly: Blockade of the 5-HT6R-induced cAMP production in transfected COS-7 cells. Format: cell-based. The note with it: for (h)5-HT6R % control antagonist response: SB271046 as control 5-HT6R antagonist, n = 2. The procedure: as §4
Blockade of the 5-HT6R-induced cAMP production: 24 h after transfection, cells were exposed to the indicated concentrations of 5-HT6R ligands at 37°C in 50 μL of HBS. […] After 10 min at 37°C, cells were then lysed by addition of 100 μL of Triton-X100 (0.1%).
as §5

The target in the next series is T5, Human 5-HT4R (Homo sapiens, UniProt Q13639).
T5 construct: purchased Eurofins HTS110M
The series can be described thus: [3H]-GR113808 competition binding on 5-HT4(b) membrane preparations. The settings on record: for inhibition: 0.2 nM [3H]-GR113808. The procedure:
At the end of the incubation, homogenates were filtered through Whatman GF/C filters (Alpha Biotech) presoaked with 0.5% polyethylenimine using a Brandel cell harvester. Filters were subsequently washed three times with 1 mL of ice-cold 25 mM Tris buffer (pH 7.4, 4°C). Non-specific binding was evaluated in parallel in the presence of 30 μM serotonin.
as §6

The mark [8] stands for this setting: read-out: (h)5-HT6R % inhibition at 10^−6M, 10^−6M.
[9] abbreviates: read-out: (h)5-HT6R % inhibition at 10^−8M, 10^−8M.
The mark [10] stands for this setting: read-out: (h)5-HT4R % inhibition at 10^−6M, 10^−6M.
[11] abbreviates: read-out: (h)5-HT4R % inhibition at 10^−8M, 10^−8M.

Each structure is given as a SMILES string. Entries after “also recorded” stand apart in the source; their conditions may differ. Counter-ions that a name gives are not always drawn. Like-named read-outs stand apart in the source and are kept apart here. A value given as a limit tells only on which side of the number the result lay.

T3 sequence (P22303 other isoform, or with tags, fused parts or gaps): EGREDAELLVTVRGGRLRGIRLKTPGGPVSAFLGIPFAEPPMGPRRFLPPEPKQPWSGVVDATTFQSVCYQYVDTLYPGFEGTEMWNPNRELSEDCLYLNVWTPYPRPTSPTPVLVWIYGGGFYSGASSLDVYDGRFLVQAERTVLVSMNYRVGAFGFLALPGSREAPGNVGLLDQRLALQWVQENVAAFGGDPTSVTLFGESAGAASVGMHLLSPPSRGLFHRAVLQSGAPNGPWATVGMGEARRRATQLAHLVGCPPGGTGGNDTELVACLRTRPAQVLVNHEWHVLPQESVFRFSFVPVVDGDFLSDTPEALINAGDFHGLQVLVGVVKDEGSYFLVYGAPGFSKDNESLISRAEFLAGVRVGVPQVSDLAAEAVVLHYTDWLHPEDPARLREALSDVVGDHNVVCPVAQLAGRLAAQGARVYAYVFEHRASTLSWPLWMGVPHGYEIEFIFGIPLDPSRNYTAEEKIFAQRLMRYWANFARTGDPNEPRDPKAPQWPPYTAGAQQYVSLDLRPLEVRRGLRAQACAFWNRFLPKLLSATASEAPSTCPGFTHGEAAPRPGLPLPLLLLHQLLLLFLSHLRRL
T4 sequence (Q13639 1-387 isoform Q13639-2): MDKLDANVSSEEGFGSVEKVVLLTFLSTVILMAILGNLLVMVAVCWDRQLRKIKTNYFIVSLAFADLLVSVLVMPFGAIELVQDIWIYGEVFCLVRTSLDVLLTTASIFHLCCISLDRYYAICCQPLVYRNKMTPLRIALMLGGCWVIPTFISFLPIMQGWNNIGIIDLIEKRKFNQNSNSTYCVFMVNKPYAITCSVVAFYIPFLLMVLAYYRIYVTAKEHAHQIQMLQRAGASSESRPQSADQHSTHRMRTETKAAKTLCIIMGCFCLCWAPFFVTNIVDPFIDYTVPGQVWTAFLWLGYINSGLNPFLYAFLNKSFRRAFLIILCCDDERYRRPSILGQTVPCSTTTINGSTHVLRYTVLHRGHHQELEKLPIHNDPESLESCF
T5 sequence (Q13639 whole entry): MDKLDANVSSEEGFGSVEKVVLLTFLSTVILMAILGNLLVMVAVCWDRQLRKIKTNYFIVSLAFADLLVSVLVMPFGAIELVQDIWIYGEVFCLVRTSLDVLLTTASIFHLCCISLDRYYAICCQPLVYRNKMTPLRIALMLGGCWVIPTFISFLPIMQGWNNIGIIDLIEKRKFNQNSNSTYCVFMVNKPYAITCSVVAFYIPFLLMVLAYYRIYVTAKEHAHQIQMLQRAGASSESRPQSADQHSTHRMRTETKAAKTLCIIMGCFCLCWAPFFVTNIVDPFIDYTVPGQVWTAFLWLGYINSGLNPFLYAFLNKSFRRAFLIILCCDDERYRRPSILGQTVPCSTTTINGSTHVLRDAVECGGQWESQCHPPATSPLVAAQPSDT
T1 sequence (P50406 whole entry): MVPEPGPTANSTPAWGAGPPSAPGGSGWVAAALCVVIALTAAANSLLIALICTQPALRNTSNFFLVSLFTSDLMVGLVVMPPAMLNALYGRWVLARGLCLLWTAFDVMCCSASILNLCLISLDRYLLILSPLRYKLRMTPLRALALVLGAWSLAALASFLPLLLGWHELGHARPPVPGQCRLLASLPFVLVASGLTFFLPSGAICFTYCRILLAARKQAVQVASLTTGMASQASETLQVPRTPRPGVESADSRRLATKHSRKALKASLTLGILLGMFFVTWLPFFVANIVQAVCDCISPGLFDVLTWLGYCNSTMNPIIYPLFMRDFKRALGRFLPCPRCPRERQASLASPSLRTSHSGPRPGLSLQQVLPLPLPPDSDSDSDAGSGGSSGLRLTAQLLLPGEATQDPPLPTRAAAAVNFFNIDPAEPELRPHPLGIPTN
T2 sequence (P50406 whole entry): as above

For the molecule `CN(C)CCCN1c2ccccc2Sc2ccc(Cl)cc21` [Chlorpromazine, chlorpromazine hydrochloride], in the series with mice [1] (10 mg/kg, depressive reference), the “Symptoms (subtoxic doses)” value is “Hypoactivity; also recorded: Ataxia; also recorded: Sleep”.

With `C[C@H](N)Cc1ccccc1` [Amphetamine, (+)-α-Methylphenethylamine hemisulfate], the “Symptoms (subtoxic doses)” value with mice [1] (2 mg/kg, stimulant reference) is “Hyperactivity; also recorded: Exopthalmy; also recorded: Irritability”.

As to `COc1cc(N)c(Cl)cc1C(=O)CCC1CCN(Cc2cccc(C)c2)CC1.O=C(O)/C=C/C(=O)O` [compound 10, 1-(4-Amino-5-chloro-2-methoxyphenyl)-3-(1-(3-methylbenzyl)piperidin-4-yl)propan-1-one fumaric acid salt], in the series on mice [2], the “Effect on scopolamine-induced spontaneous alternation deficit” value is listed as “anti-amnesic effect was observed”. Also, the LD50 (usually the dose expected to kill half of the subjects tested) at 24 h in series [3] was more than 100 mg/kg. Also, in the series with mice [1] (1–10–100 mg/kg), the “Symptoms (subtoxic doses)” value was “did not show any deleterious signs; also recorded: No symptoms”. Moreover, on (h)5-HT6R [4], the “cAMP production in the absence of agonist (inverse agonist activity)” value is on record as “decreased cAMP production below the basal” and the “(h)5-HT6R Profile” value was “Inverse agonist”. Also, the affinity at human 5-HT6 receptors corresponds to a Ki of 219 ± 42 nM. Moreover, the IC50 – broadly, the concentration that inhibits the measured activity by half – in series [5] is 33.7 ± 1.7 nM. In the series with mice [6], the “Effect on spontaneous locomotor activity” value is listed as “did neither modify spontaneous locomotor activity”. Moreover, the EC50 (usually the concentration needed to bring the measured effect to its halfway point) on (h)5-HT4(a)R is 20 nM. The “(h)5-HT4(a)R % control agonist response” value at (h)5-HT4(a)R (5-HT as control 5-HT4R agonist, n = 2) is 59.8 ± 2.5 n = 2%. Besides, the “(h)5-HT4(a)R Profile” value on (h)5-HT4(a)R (cAMP, COS-7 cells) is recorded as “Partial agonist”. Besides, on (h)5-HT6R [7], the 50% inhibitory concentration (IC50) is 10000 nM and the “(h)5-HT6R % control antagonist response” value was 93.4 ± 1.8 n = 2%. The Ki (as a rule, a dissociation constant, usually derived from enzyme kinetics or from competition with a known ligand) at Human 5-HT4R ((h)5-HT4R Ki, n = 3, Ki ± SD) is 210 ± 43 nM.

With `COc1cc(N)c(Cl)cc1C(=O)CCC1CCN(Cc2cc([N+](=O)[O-])ccc2F)CC1` [5s, 1-(4-Amino-5-chloro-2-methoxyphenyl)-3-(1-(2-fluoro-5-nitrobenzyl)piperidin-4-yl)propan-1-one], the inhibition – broadly, the relative decrease from the control value, in per cent – worked out at 18% on human 5-HT6 receptors (setting [8]), 5% at human 5-HT6 receptors (setting [9]), 62% at Human 5-HT4R (setting [10]) and 4% on Human 5-HT4R (setting [11]). Moreover, the inhibition at 1 µM in series [5] was determined as 63%.

For the molecule `Fc1ccc2c(CCNCc3cccc(OCC(F)(F)C(F)F)c3)c[nH]c2c1` [compound 2, idalopirdine, reference compound], at (h)5-HT6R [4], the “cAMP production in the absence of agonist (inverse agonist activity)” value was “decreased cAMP production below the basal” and the “(h)5-HT6R Profile” value was “Inverse agonist”. In addition, the inhibition at human 5-HT6 receptors (setting [9]) stood at 88%. In addition, the “(h)5-HT6R % control antagonist response” value on (h)5-HT6R [7] is recorded as 101.2 ± 3.2 n = 2%.

In the case of `COc1cc(N)c(Cl)cc1C(=O)CCC1CCN(Cc2cccc(Br)c2)CC1` [5i, 1-(4-Amino-5-chloro-2-methoxyphenyl)-3-(1-(3-bromobenzyl)piperidin-4-yl)propan-1-one], the “affinity for 5-HT6R (in words)” value at human 5-HT6 receptors is reported as “displayed affinity for 5-HT6R”. At human 5-HT6 receptors, this molecule came in with a Ki of 169 ± 44 nM. Also, the inhibition amounted to 77% on human 5-HT6 receptors (setting [8]), 7% on human 5-HT6 receptors (setting [9]), 94% at Human 5-HT4R (setting [10]) and 5% on Human 5-HT4R (setting [11]). For the same molecule, in [5], the “inhibitory effect towards AChE (in words)” value was “devoid of inhibitory effect towards AChE”. For the same molecule, the inhibition at 1 µM in series [5] amounted to 44%.

`COc1cc(N)c(Cl)cc1C(=O)CCC1CCN(Cc2ccc(F)cc2)CC1` [5o, 1-(4-Amino-5-chloro-2-methoxyphenyl)-3-(1-(4-fluorobenzyl)piperidin-4-yl)propan-1-one]: the inhibition is 58% on human 5-HT6 receptors (setting [8]), 13% at human 5-HT6 receptors (setting [9]), 102% on Human 5-HT4R (setting [10]) and 19% on Human 5-HT4R (setting [11]). In addition, the IC50 in series [5] was determined as 78.4 ± 12.1 nM. In series [5], the inhibition at 1 µM amounted to 92%.

Turning to `COc1cc(N)c(Cl)cc1C(=O)CCC1CCN(Cc2ccc(C)cc2)CC1` [5q, 1-(4-Amino-5-chloro-2-methoxyphenyl)-3-(1-(4-methylbenzyl)piperidin-4-yl)propan-1-one], the inhibition was determined as 21% on human 5-HT6 receptors (setting [8]), 21% on human 5-HT6 receptors (setting [9]), 100% at Human 5-HT4R (setting [10]) and 24% at Human 5-HT4R (setting [11]). Also, in [5], the IC50 worked out at 450 nM. In addition, the inhibition at 1 µM in series [5] is 87%.

For the molecule `COc1cc(N)c(Cl)cc1C(=O)CCC1CCN(Cc2ccccc2OCc2ccccc2)CC1` [5g, 1-(4-Amino-5-chloro-2-methoxyphenyl)-3-(1-(2-benzyloxybenzyl)piperidin-4-yl)propan-1-one], the inhibition came out at 18% at human 5-HT6 receptors (setting [8]), 0% at human 5-HT6 receptors (setting [9]), 70% at Human 5-HT4R (setting [10]) and 7% on Human 5-HT4R (setting [11]). Moreover, the inhibition at 1 µM in [5] came to 33%.

Source of the values: PMC6611404 (Frontiers in Aging Neuroscience, 2019).
